For one molecule, IC50 results are on record in patent US10782295B2, “Cysteine-reactive ligand discovery in proteomes” (THE SCRIPPS RESEARCH INSTITUTE, priority 2013, dated 2020).

This assay concerns AKT1/2/3. The experiment in a line: competitive isoTOP-ABPP, concentration-dependent HNE. It counts as binding, human. As to conditions: MDA-MB-231 proteome, read-out: IC50 for inhibition of cysteine (C311) in AKT1/2/3. The method, then:
The MDA-MB-231 cell proteome was treated with varying concentrations of HNE (5, 10, 50, 100 and 500 μM) for 60 min and then the IA-labeling profile of each reaction was quantitatively compared to a DMSO-control sample by isoTOP-ABPP.
By combining the R values at all 5 HNE concentrations, we could extrapolate IC50 values for […] of IA probe-labeling for ˜700 of the 1100 cysteines (FIG. 3a).
HNE was purchased from EMD biosciences, 15d-PGJ2 was purchased from Cayman Chemicals and 2-HD was purchased from Santa Cruz Biotechnology. Proteome samples were diluted to a 4 mg protein/mL solution in PBS. […]
IA-probe labeled peptides were identified by SEQUEST2 and DTASelect3, and the quantification of heavy/light ratios (isoTOP-ABPP ratios, R) was performed by an in-house software (CIMAGE) as previously described. The software was advanced to be able to detect and quantify cases where near complete […] blockade of IA-probe labeling was achieved (e.g., very small or no light peak) and assign an empirical ratio cut-off of 15 to each of such cases. […] In the case of probe-modified peptides that were sequenced in one, but not the other runs, a featured algorithm of CIMAGE was utilized to identify the corresponding peak pairs in the runs without the SEQUEST identification and obtain quantification as previously described. […]

Consider `CCCCCC(O)/C=C/C=O` (stereo not shown) [4-HNE, 4-Hydroxynonenal], for which the IC50 came out at 60 µM.
